The nature of series [1]: physchem. As to conditions: thermodynamic from solid.
The conditions of series [2]: 40° C., 75% RH; for Assay (%) / Color / XRPD: open vial.
Protocol: The samples were placed under accelerated open-vial conditions (40° C., 75% RH, and open vial) to assess the stability of both samples.
A short description of series [3]: Variable-temperature XRPD. The class given is physicochemical. The conditions noted are these: heated up to 100° C. The method, then:
In this application, X-ray powder diffraction (XRPD) data were collected using a BrukerD8 Advance diffractometer; parameters are as follows: Cu radiation; wavelength: 1.54 Å; Current voltage: 40 KV, 40 mA; Scan range: 3˜40° 2θ.

Series [4] can be described thus: Accelerated closed-vial stability study. The format is physicochemical. As to conditions: 40° C., 75% RH.
The conditions of series [5]: pH 1.2.
A short description of series [6]: physchem. The conditions noted are these: thermodynamic from solid, Instantaneous Solubility.
For series [7] the following is noted: cited from earlier work.
[8] abbreviates: pH 1.2, simulated gastric fluid.
The mark [9] stands for this setting: sealed 5 mL vial in self-sealing bag.

“Also recorded” adds a separate entry of the source. Counter-ions that a name gives are not always drawn. Like-named read-outs stand apart in the source and are kept apart here. A value given as a limit tells only on which side of the number the result lay.

Usually solubility stands for the dissolved amount per volume that the medium holds. One may read the thermodynamic solubility as the concentration in solution at equilibrium with solid. In the case of `C=CC(=O)Nc1cc(Nc2nccc(-n3cc(CN(C)C)c(-c4ccccc4)n3)n2)c(OC)cc1N1CCOCC1` [Form A, lazertinib mesylate], in the series “physchem [1]” (setting [8]), the solubility at 4 hrs was above 60 mg/mL, the solubility at 12 hrs is above 60 mg/mL and the thermodynamic solubility is above 60 mg/mL. For the same compound, in the series “physchem [1]” (pH 4, aqueous buffer), the solubility at 4 hrs was determined as 67.9 mg/mL, the solubility at 12 hrs turned out to be 67 mg/mL and the thermodynamic solubility is above 60 mg/mL. In the series “physchem [1]” (water), this compound came in with a solubility at 4 hrs of 70.7 mg/mL, a solubility at 12 hrs of 69.4 mg/mL and a solubility (thermodynamic) above 60 mg/mL. In addition, the “remains stable for at least (time)” value in series [2] (open) is listed as “at least 21 days”. For the same compound, in series [2] (0 day), the “Assay (%)” value is recorded as 98.79%, the Color entry is reported as “white” and the XRPD entry is “Form A”. Moreover, in series [2] (21 days), the “Assay (%)” value turned out to be 98.44%, the Color result was “white” and the XRPD result is given as “Form A”. In series [3], the “crystal form on heating (variable-temperature XRPD)” value is listed as “remains unchanged”. The “remains stable for at least (time)” value in series [4] (5 mL vial packed in a self-sealing bag (sealed)) was “at least 1 month”. In series [4] (setting [9]), the “change in assay value” was “minimal change; also recorded: no significant changes”; the “color before and after storage” value was “white; also recorded: no significant changes”; the “crystal form before and after storage” value is on record as “remains unchanged; also recorded: no significant changes”. Also, the “Instantaneous Solubility” value in series [5] was above 50 mg/mL. The solubility in the series “physchem [6]” (setting [8]) is above 80 mg/mL. This compound gave a solubility in “physchem [6]” (pH 4, aqueous buffer) above 50 mg/mL. The compound further returned a solubility in the series “physchem [6]” (water) above 50 mg/mL.

As to `C=CC(=O)Nc1cc(Nc2nccc(-n3cc(CN(C)C)c(-c4ccccc4)n3)n2)c(OC)cc1N1CCOCC1` [Form I, lazertinib mono-mesylate, reference compound], in series [2] (0 day), the “Assay (%)” value turned out to be 98.73%, the Color result is “yellow” and the XRPD entry was “Form I”. In series [2] (21 days), the “Assay (%)” value stood at 70.35%, the Color result is reported as “pink” and the XRPD entry is “Form I”. Also, in series [2] (open, 21 days), the “change in assay value (in words)” value is recorded as “significant decrease” and the “change in color (in words)” value is listed as “from yellow to pink”. Besides, the solubility in series [7] (pH 1.2) is recorded as 14.9 mg/mL. Further, the solubility in series [7] (pH 4) is reported as 20.9 mg/mL.
